Measurements reported in patent US9676997B2, “Compositions and methods for stabilizing luminogenic substrates” (Promega Corporation, priority 2014, dated 2017).

Assays:
[1] = Stability of 2.3 mM furimazine at 37° C. in the dark with or without 200 mM thionucleoside, luminescence with NANOLUC enzyme; format: physicochemical; settings: 50% propylene glycol:50% ethanol
Description: Specifically, a stock solution of furimazine in 50% propylene glycol:50% ethanol (v/v) was prepared, in which the final concentration of furimazine by absorbance was 4.6 mM. The furimazine stock solution was then diluted 1:1 in 50% propylene glycol:50% ethanol (v/v) to create a control solution without the additives ATT, TAK-0014 and TAK-0002 (i.e., “no additive furimazine” control) and containing 2.3 mM furimazine. 400 mM stock solutions of ATT, TAK-0014 and TAK-0002 were prepared in 50% propylene glycol:50% ethanol (v/v). Each of the ATT, TAK-0014 and TAK-0002 stock solutions was then diluted 1:1 in the 4.6 mM furimazine stock solution to yield solutions containing 200 mM ATT, TAK-0014 or TAK-0002, and 2.3 mM furimazine.
Each sample was separated into multiple amber tubes and incubated at 37° C. in a dark incubator (i.e., in the absence of light). Aliquots were taken from each sample at various time points and stored at −20° C. in the dark (i.e., in the absence of light) until all time points were collected.
To measure luminescence in the aliquots, each aliquot was diluted 1:50 in buffer (NANOGLO buffer, Promega Corporation) to yield 46 μM furimazine. These diluted aliquots were further diluted 1:10 in buffer (NANOGLO buffer, Promega Corporation) to yield 4.6 μM furimazine. 504 of each dilution (i.e., the twice diluted (0.1) aliquots) was mixed with 504, of CO2-independent media+10% fetal bovine serum (FBS) and 0.4 ng/mL luminogenic enzyme (NANOLUC enzyme, Promega Corporation). Luminescence was measured on a luminometer (GLOMAX Multi Plus luminometer, Promega Corporation). Relative light units (RLUs) were normalized for each time point by the RLU value at the 0 days time point. The percent activity from the 0 days time point (i.e., t=0) was plotted against time (days) for each sample as shown in FIG. 15A. In FIG. 15A, B-ATT denoted TAK-0002 and E-ATT denoted TAK-0014.
Error in Table 15 was the standard error from a regression calculation and Fz denoted furimazine, B-ATT denoted TAK-0002, and E-ATT denoted TAK-0014.

[2] = Stability of furimazine at 37° C. in different organic solvents with or without ATT, luminescence with NANOLUC luciferase; format: physicochemical; settings: 50% PG:50% ethanol, 60% PG:40% ethanol, 15% glycerol:85% ethanol, 250 or 300 mM ATT vs no ATT
Description: To further examine the stabilization of furimazine at 37° C., luminescence was measured after furimazine was incubated in the presence of different organic solvents, namely 50% (v/v) propylene glycol (PG):50% (v/v) ethanol, 60% (v/v) propylene glycol (PG):40% (v/v) ethanol, and 15% (v/v) glycerol:85% (v/v) ethanol.
1.25 mM stocks of furimazine were prepared in the following solutions: a) 50% propylene glycol:50% ethanol, 1.25 mM furimazine, 250 mM ATT; b) 60% propylene glycol:40% ethanol, 1.25 mM furimazine, 300 mM ATT; c) 15% glycerol:85% ethanol, 1.25 mM furimazine, 250 mM ATT; and inventory furimazine (Promega Corporation). Furimazine was first dissolved and then ATT was added. To make 4 mL of each sample, 2 mg furimazine and 143 mg of ATT (250 mM ATT) was added. For 300 mM ATT, 171 mg of ATT was added.
A portion of these samples was aliquoted into amber Starstead tubes with O-rings and then placed at 37° C. […] The remaining sample was placed at −20° C. in a 15 mL tube and monitored for precipitate formation.
Prior to assaying the samples, they were heated to room temperature (RT) and vortexed to ensure that any material that fell out of solution was re-suspended. […] The resulting dilutions were incubated for 3 minutes at RT, and luminescence was detected on a luminometer (GLOMAX Multi plus luminometer, Promega Corporation). […]

SMILES	stabilization of furimazine against decomposition in the absence of light [1]	stability of furimazine (normalized RLUs over time) [2]
Cc1n[nH]c(=S)[nH]c1=O [ATT, 6-methyl-3-thioxo-3,4-dihydro-1,2,4-triazin-5(2H)-one]	stabilized furimazine against decomposition in the absence of light	
O=c1c(Cc2ccco2)nc2c(Cc3ccccc3)[nH]c(-c3ccccc3)cn1-2 [Furimazine, furimazine]		more stable in the presence of ATT than in the absence of ATT for each organic solvent
